Consider two molecules from patent US20160209435A1, “Acetaminophen as a Marker of Hepatic Disorders” (THE ARIZONA BOARD OF REGENTS, on behalf of THE UNIVERSITY …, priority 2008, published 2016).

Series [1] is described as follows: APAP-GLUC concentration in plasma of pediatric patients after APAP administration (HPLC). Type of series: in vivo, human. The note with it: for concentration at 1 h / concentration at 2 h / concentration at 4 h / concentration at 3 h: human, plasma; for concentration at 1 h: 1 h after APAP; for concentration at 2 h: 2 h after APAP; for concentration at 4 h: 4 h after APAP; for concentration at 3 h: 3 h after APAP. The procedure:
(§1) A study was conducted in pediatric patients whose disease status had been biopsy verified. Twenty-four pediatric patients (12-18 yrs) were desirable for the preliminary study due to the presumed lack of confounding factors (e.g., alcoholic consumption, illicit drug use) and the increasing prevalence of childhood obesity. Conversely, pediatric patients are limited in the amount of real liver damage that can take place simply due to age, where pediatric patients are incapable of developing ballooning degeneration and are limited to fat deposition, inflammation, and fibrosis.
High Performance Liquid Chromatography Analysis. APAP and its metabolites in plasma, and urine samples were quantified by high performance liquid chromatography analysis based on previously described methods (Howie et al., 1977a; Chen et al., 2000; Slitt et al., 2003d). APAP and its metabolites were resolved using a Zorbmax™ SB-C18 reverse-phase 4.6-mm×25-cm column with a Phenomenex™ Security Guard Column Guard and eluted using a mobile phase composed of 12.5% HPLC-grade methanol, 1% acetic acid, and 86.5% water, run isocratically at a flow rate of 1.2 mL/minute. The elution of metabolites was monitored at a wavelength of 254 nm. Retention times of APAP and its metabolites were determined by comparison with that of authentic standards. […] Samples were analyzed using a Beckman System Gold HPLC system (Beckman Coulter, Inc., Fullerton, Calif.) equipped with a 128-nm solvent module and a 166-nm detector. Quantitation was based on integrated peak areas. The concentrations of APAP and its metabolites were calculated using an APAP standard curve since the molar extinction coefficients of APAP and its conjugated metabolites are approximately the same (Howie et al., 1977b). To precipitate proteins in plasma, and urine, samples were diluted 1:2, 1:2, and 1:3, respectively, with ice-cold methanol and centrifuged at 4,000×g for 30 minutes at 4° C. The resulting supernatants were collected and diluted in mobile phase 1:3 (urine) or 1:2 (plasma) prior to HPLC analysis.
Liver fibrosis was histologically characterized as mild (minimal scarring around blood vessels), moderate (scarring extending out from the liver blood vessels), or severe (scarring forming bridges between blood vessels).
Liver inflammation was histologically characterized as mild (less than 2 foci of inflammation), moderate (2-4 foci of inflammation), or severe (more than 4 foci of inflammation).

For series [2] the following is noted: MCD rats, APAP 1 mmol/kg; cited from earlier work.
Series [3] in a line: APAP-GLUC concentration in urine after APAP administration (HPLC). Type of series: in vivo, human. The note with it: normal volunteers, steatosis, steatohepatitis. The method, then:
as §1
High Performance Liquid Chromatography Analysis. APAP and its metabolites in plasma, and urine samples were quantified by high performance liquid chromatography analysis based on previously described methods (Howie et al., 1977a; Chen et al., 2000; Slitt et al., 2003d). […] The elution of metabolites was monitored at a wavelength of 254 nm. Retention times of APAP and its metabolites were determined by comparison with that of authentic standards. […] Samples were analyzed using a Beckman System Gold HPLC system (Beckman Coulter, Inc., Fullerton, Calif.) equipped with a 128-nm solvent module and a 166-nm detector. Quantitation was based on integrated peak areas. […]

For series [4] the following is noted: cited from earlier work.
[5] abbreviates: NASH, read-out: Mean plasma concentration.
[6] abbreviates: NASH, read-out: Median plasma concentration.
Setting [7] is: Normal, read-out: Mean plasma concentration.
[8] abbreviates: Normal, read-out: Median plasma concentration.
[9] abbreviates: Steatosis, read-out: Mean plasma concentration.
Setting [10] is: Steatosis, read-out: Median plasma concentration.

Read-outs that look alike come from different tables or passages of the source.

Turning to `CC(=O)Nc1ccc(O[C@@H]2O[C@H](C(=O)O)[C@@H](O)[C@H](O)[C@H]2O)cc1` [APAP-GLUC, acetaminophen (APAP)-glucuronide], in series [1] (all time points measured), the “Plasma concentration, steatohepatitis versus simple steatosis” value is recorded as “significantly higher”. Besides, the concentration at 1 h was 60.7 µM in series [1] (setting [5]); 75.9 µM in series [1] (setting [6]); 29.9 µM in series [1] (setting [7]); 29 µM in series [1] (setting [8]); 30.5 µM in series [1] (setting [9]); 32.6 µM in series [1] (setting [10]). Moreover, the concentration at 2 h in series [1] (setting [5]) amounted to 72.7 µM; in series [1] (setting [6]), 66.4 µM; in series [1] (setting [7]), 54.3 µM; in series [1] (setting [8]), 48.9 µM; in series [1] (setting [9]), 44.3 µM; in series [1] (setting [10]) it was 41.1 µM. In addition, the concentration at 4 h in series [1] (setting [5]) was determined as 68.3 µM; in series [1] (setting [6]) it was 62.6 µM; in series [1] (setting [9]) it was 35.5 µM; in series [1] (setting [10]), 35.3 µM. The values for the concentration at 3 h in series [1] (setting [7]) and in series [1] (setting [8]) were 46.7 µM and 39.2 µM, respectively. In addition, the “Plasma levels, hepatic fibrosis versus no hepatic fibrosis” value in series [1] (pediatric patients) is “Higher”. In series [1] (pediatric patients), the “Plasma levels, hepatic inflammation versus no hepatic inflammation” value is on record as “Higher”. The “route of excretion relative to control” value in series [2] is listed as “shift from biliary to plasma excretion”. The “Urine levels, NASH versus other groups” value in series [3] was “not significantly different between patients with NASH and other groups until four hours”.

For the molecule `CC(=O)Nc1ccc(O)cc1` [Acetaminophen], the plasma half-life in series [4] (first-order elimination) is 2.0 to 2.4 h. Further, in series [4] (in vivo), the “fraction of administered dose conjugated with glucuronic acid” value is recorded as “At least one-half” and the “fraction of administered dose conjugated with sulfate” value is recorded as “one-third”. Moreover, the “fraction metabolized by CYP-450-dependent mixed-function oxidase pathway” value in series [4] (primarily via CYP2E1) was 5-9%. Moreover, the “dose excreted unchanged by the kidneys” value in series [4] (recommended dose) is listed as “Less than 5%”.
